Target: GLP-1R (Homo sapiens, UniProt P43220)
Test: GLP-1R activation: cAMP increase in CHO cells stably expressing GLP-1R
Format: cell-based
Conditions: cAMP increase, CHO cells stably expressing GLP-1R, 10 point dose response, 30 minutes incubation; read-out: EC50

Chain of GLP-1R (P43220 24-463): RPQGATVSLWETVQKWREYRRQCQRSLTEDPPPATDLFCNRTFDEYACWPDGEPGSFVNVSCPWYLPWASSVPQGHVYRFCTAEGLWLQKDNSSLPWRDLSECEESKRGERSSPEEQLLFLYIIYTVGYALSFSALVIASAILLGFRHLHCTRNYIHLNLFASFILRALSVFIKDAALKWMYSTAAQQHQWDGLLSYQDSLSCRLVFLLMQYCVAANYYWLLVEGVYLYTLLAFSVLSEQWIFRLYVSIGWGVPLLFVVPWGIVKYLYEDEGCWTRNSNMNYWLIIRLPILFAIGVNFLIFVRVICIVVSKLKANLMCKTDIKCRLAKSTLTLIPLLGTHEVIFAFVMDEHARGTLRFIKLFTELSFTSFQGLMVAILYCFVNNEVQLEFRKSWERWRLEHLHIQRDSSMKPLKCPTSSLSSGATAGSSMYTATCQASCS

First: CO[C@H]1C[C@@H](n2c(Cc3cc(F)c(-c4cccc(OCc5ccc(C#N)cc5F)n4)cc3F)nc3ccc(C(=O)O)cc32)C1 [Example 566, 2-(4-(6-((4-cyano-2-fluorobenzyl)oxy)pyridin-2-yl)-2,5-difluorobenzyl)-1-((1s,3s)-3-methoxycyclobutyl)-1H-benzo[d]imidazole-6-carboxylic acid]
Second: CC12COC(Cn3c(Cc4cc(F)c(-c5cccc(OCc6ccc(C#N)cc6F)n5)cc4F)nc4ccc(C(=O)O)cc43)(C1)C2 [Example 741]
The EC50 of the first is 11-fold higher: 255 nM for the first, 22.6 nM for the second.

Compared with `N#Cc1ccc(COc2nccc(-c3ccc(Cc4nc5c(F)cc(C(=O)O)cc5n4Cc4ncco4)cc3F)n2)c(F)c1` [Example 618], `N#Cc1ccc(COc2cccc(-c3cc(F)c(Cc4nc5c(F)cc(C(=O)O)cc5n4Cc4ncco4)cc3F)n2)c(F)c1` [Example 584, 2-(4-(6-((4-cyano-2-fluorobenzyl)oxy)pyridin-2-yl)-2,5-difluorobenzyl)-4-fluoro-1-(oxazol-2-ylmethyl)-1H-benzo[d]imidazole-6-carboxylic acid] is 6.4-fold lower in EC50: 1.48 nM for the first, 0.23 nM for the second.

`COCCn1c(Cc2ccc(-c3cccc(OCc4ccc(C#N)c5c4OCCC5)n3)cc2F)nc2ccc(C(=O)O)cc21` [Example 144, 2-(4-(6-((5-cyanochroman-8-yl)methoxy)pyridin-2-yl)-2-fluorobenzyl)-1-(2-methoxyethyl)-1H-benzo[d]imidazole-6-carboxylic acid] and `COCCn1c(Cc2ncc(-c3cccc(OCc4ccc(C#N)cc4F)n3)cn2)nc2ccc(C(=O)O)cc21` [Example 58, 2-((5-(6-((4-cyano-2-fluorobenzyl)oxy)pyridin-2-yl)pyrimidin-2-yl)methyl)-1-(2-methoxyethyl)-1H-benzo[d]imidazole-6-carboxylic acid] are within 1.5-fold of each other in EC50: 20.7 nM for the first, 28.8 nM for the second.

First: CC(C)(CF)Cn1c(Cc2ccc(-c3cccc(OCc4ccc(C#N)cc4F)n3)cc2F)nc2ccc(C(=O)O)cc21 [Example 11, 2-(4-(6-((4-cyano-2-fluorobenzyl)oxy)pyridin-2-yl)-2-fluorobenzyl)-1-(3-fluoro-2,2-dimethylpropyl)-1H-benzo[d]imidazole-6-carboxylic acid]
Second: COCCn1c(Cc2cc(F)c(-c3cccc(OCc4ccc(C#N)cc4F)n3)c(F)c2F)nc2ccc(C(=O)O)cc21 [Example 856, 2-(4-(6-((4-cyano-2-fluorobenzyl)oxy)pyridin-2-yl)-2,3,5-trifluorobenzyl)-1-(2-methoxyethyl)-1H-benzo[d]imidazole-6-carboxylic acid]
The EC50 of the first is 1.7-fold lower: 2.7 nM for the first, 4.55 nM for the second.

First: COCCn1c(Cc2ccc(-c3cccc(OCC(=O)c4ccc(OC)cc4)n3)cc2F)nc2ccc(C(=O)O)cc21 [Example 215, 2-(2-fluoro-4-(6-(2-(4-methoxyphenyl)-2-oxoethoxy)pyridin-2-yl)benzyl)-1-(2-methoxyethyl)-1H-benzo[d]imidazole-6-carboxylic acid]
Second: COCCn1c(Cc2ccc(-c3cccnc3OCc3ccccc3)cc2F)nc2ccc(C(=O)O)cc21 [Example 183, 2-(4-(2-(benzyloxy)pyridin-3-yl)-2-fluorobenzyl)-1-(2-methoxyethyl)-1H-benzo[d]imidazole-carboxylic acid]
The EC50 of the first is 63-fold lower: 62.7 nM for the first, 3960 nM for the second.

In the case of `COCCn1c(Cc2cc(F)c(-c3cccc(OCc4ccc(C(F)(F)F)s4)n3)cc2F)nc2ccc(C(=O)O)cc21` [Example 864], the EC50 is reported as 3.71 nM.

System: not listed separately
Test: Microsomal stability, human liver microsomes (predicted hepatic clearance)
Conditions: predicted from in vitro microsomal stability data

Going from `COCCn1c(Cc2ccc(-c3cccc(OCc4cccc5cc[nH]c45)n3)cc2F)nc2ccc(C(=O)O)cc21` [Example 479, 2-(4-(6-((1H-indol-7-yl)methoxy)pyridin-2-yl)-2-fluorobenzyl)-1-(2-methoxyethyl)-1H-benzo[d]imidazole-6-carboxylic acid] to `COCCn1c(Cc2ccc(-c3cccc(OCc4ccccc4S(C)(=O)=O)n3)cc2F)nc2ccc(C(=O)O)cc21` [Example 510, 2-(2-fluoro-4-(6-((2-(methylsulfonyl)benzyl)oxy)pyridin-2-yl)benzyl)-1-(2-methoxyethyl)-1H-benzo[d]imidazole-6-carboxylic acid], the “Predicted Hepatic Clearance (Pred. Cl.)” value rises from 9.33 mL/min/kg to 14.5 mL/min/kg (1.6-fold).

`COCCn1c(Cn2cc(-c3cccc(OCc4ccc(C#N)cc4F)n3)cn2)nc2ccc(C(=O)O)cc21` [Example 282, 2-((4-(6-((4-cyano-2-fluorobenzyl)oxy)pyridin-2-yl)-1H-pyrazol-1-yl)methyl)-1-(2-methoxyethyl)-1H-benzo[d]imidazole-6-carboxylic acid] and `COCCn1c(Cn2cc(-c3csc(OCc4ccc(C#N)cc4F)n3)cn2)nc2ccc(C(=O)O)cc21` [Example 78, 2-((4-(2-((4-cyano-2-fluorobenzyl)oxy)thiazol-4-yl)-1H-pyrazol-1-yl)methyl)-1-(2-methoxyethyl)-1H-benzo[d]imidazole-6-carboxylic acid] are within 1.5-fold of each other in “Predicted Hepatic Clearance (Pred. Cl.)” value: 8.17 mL/min/kg for the first, 7 mL/min/kg for the second.

Compared with `COCCn1c(Cc2ccc(-c3cc(-c4cnn(C)c4)cc(OCc4ccc(C#N)cc4F)n3)cc2F)nc2ccc(C(=O)O)cc21` [Example 99, 2-(4-(6-((4-cyano-2-fluorobenzyl)oxy)-4-(1-methyl-1H-pyrazol-4-yl)pyridin-2-yl)-2-fluorobenzyl)-1-(2-methoxyethyl)-1H-benzo[d]imidazole-6-carboxylic acid], `COCCn1c(Cc2ccc(-c3nnc(OCc4ccc(C#N)cc4F)s3)cc2F)nc2ccc(C(=O)O)cc21` [Example 213, 2-(4-(5-((4-cyano-2-fluorobenzyl)oxy)-1,3,4-thiadiazol-2-yl)-2-fluorobenzyl)-1-(2-methoxyethyl)-1H-benzo[d]imidazole-carboxylic acid] is 3.9-fold higher in “Predicted Hepatic Clearance (Pred. Cl.)” value: 2.33 mL/min/kg for the first, 9.17 mL/min/kg for the second.

Going from `COCCn1c(C(C)c2ccc(-c3cccc(OCc4ccc(C#N)cc4F)n3)cc2)nc2ccc(C(=O)O)cc21` (single isomer, unassigned) [Example 439, 2-(1-(4-(6-((4-cyano-2-fluorobenzyl)oxy)pyridin-2-yl)phenyl)ethyl)-1-(2-methoxyethyl)-1H-benzo[d]imidazole-6-carboxylic acid] to `N#Cc1ccc(COc2cccc(-c3ccc(Cc4nc5ccc(C(=O)O)cc5n4CC4CCO4)c(F)c3)n2)c(F)c1` (stereo not shown) [Example 15, 2-(4-(6-((4-cyano-2-fluorobenzyl)oxy)pyridin-2-yl)-2-fluorobenzyl)-1-(oxetan-2-ylmethyl)-1H-benzo[d]imidazole-6-carboxylic acid], the “Predicted Hepatic Clearance (Pred. Cl.)” value falls from 6 mL/min/kg to 3.3 mL/min/kg (1.8-fold).

Compared with `COCCn1c(Cc2c(F)cc(-c3cnccc3OCc3ccc(C#N)cc3F)cc2F)nc2ccc(C(=O)O)cc21` [Example 191, 2-(4-(4-((4-cyano-2-fluorobenzyl)oxy)pyridin-3-yl)-2,6-difluorobenzyl)-1-(2-methoxyethyl)-1H-benzo[d]imidazole-carboxylic acid], `COCCn1c(Cc2ccc(-c3cccc(OCc4ccc5cn[nH]c5c4)n3)cc2F)nc2ccc(C(=O)O)cc21` [Example 463, 2-(4-(6-((1H-indazol-6-yl)methoxy)pyridin-2-yl)-2-fluorobenzyl)-1-(2-methoxyethyl)-1H-benzo[d]imidazole-6-carboxylic acid] is 3.4-fold lower in “Predicted Hepatic Clearance (Pred. Cl.)” value: 7.83 mL/min/kg for the first, 2.33 mL/min/kg for the second.

With `COCCn1c(Cc2ccc(-c3cc(C#Cc4ccccc4)cc(OCc4ccc(C#N)cc4F)n3)cc2F)nc2ccc(C(=O)O)cc21` [Example 100, 2-(4-(6-((4-cyano-2-fluorobenzyl)oxy)-4-(phenylethynyl)pyridin-2-yl)-2-fluorobenzyl)-1-(2-methoxyethyl)-1H-benzo[d]imidazole-6-carboxylic acid] the “Predicted Hepatic Clearance (Pred. Cl.)” value was less than 1.83 mL/min/kg.
